Test results reported in US7514245B2, “Method for producing chiral α-hydroxycarboxylic acids by enzymatic hydrolysis of chiral cyanohydrins” (DSM Fine Chemicals Austria NFG GmbH & Co. KG, priority 2003, dated 2009).

Legend:
[1] = tested on: Rhodococcus erythropolis NCIMB 11540 cells; assay: Enzymatic hydrolysis at different temperatures, Experiment 6.1; type: cell-based; conditions: after 2 h, 10 g/l, 5% DMSO
Procedure: In Experiment 6.1, the course of the reaction was compared at reaction temperatures of 30° C., 35° C. and 40° C. The batches were carried out on a 5 ml scale using a substrate concentration of 10 g/l of (R)-2-chloromandelonitrile. After complete reaction, the ee of the product was determined.
The biocatalyst was produced according to Example 4, Experiment 4.2 (OD546 8.4). In each case 4.75 ml of the cell suspension (resting cells, OD546 52) were used for the enzymatic reactions. Reactions of 50 mg of (R)-2-chloromandelonitrile (>99%) ([S]=60 mM, 10 g/l), dissolved in 250 μl of DMSO (5%) were carried out at 3 different temperatures (30° C., 35° C., 40° C.) in culture tubes at 150 rpm (parallel batches).
(§1) To monitor the conversion rate by means of HPLC, in each case 200 μl of sample were admixed with 200 μl of 1N HCl, centrifuged (5 min, 13 000 rpm) and diluted before measurement. After complete reaction, the ee of the product was determined.

[2] = tested on: Rhodococcus erythropolis NCIMB 11540 cells; assay: Enzymatic hydrolysis at different substrate concentrations, Experiment 4.3; type: cell-based; conditions: after 2 h, 3% DMSO, 40° C., resting cells
Procedure: In experiment 4.3, reactions were carried out using 10 g/l and 15 g/l of (R)-2-chloromandelonitrile. In addition, after complete conversion, the ee of the hydroxy acid formed was determined.
The biocatalyst was produced according to Example 1, Variant II, 2.75 l of the fermentation medium, harvest after 20 hours. The cells were resuspended in approximately 200 ml of buffer (resting cells, OD546 44). In each case 4.85 ml of this cell suspension were used for the enzymatic reactions.
Two different concentrations of (R)-2-chloromandelonitrile were studied in parallel batches. The reaction was started by adding 150 μl of substrate solution and was carried out in culture tubes in the shaking cabinet at 40° C. and 150 rpm. The conversion rate was monitored by means of HPLC. At complete conversion, the hydroxy acid was extracted after acidification and the ee was determined. • a. 50 mg of (R)-2-chloromandelonitrile, dissolved in 150 μl of DMSO ([S]=60 mM, 10 g/l, cosolvent: 3% DMSO)

[3] = tested on: Rhodococcus erythropolis NCIMB 11540 cells; assay: Enzymatic hydrolysis at different substrate concentrations, Experiment 4.2; type: cell-based; conditions: 5% DMSO, 30° C., resting cells
Procedure: In experiment 4.2, the reaction was carried out using 2 different substrate concentrations (10 g/l, 20 g/l) on a 5 ml scale.
The biocatalyst was produced according to Example 1, Variant II, 2 l fermentation medium, harvest after 19 hours (OD546 8.4). The cells were resuspended in approximately 140 ml of buffer (resting cells, OD546 52). In each case 4.75 ml of this cell suspension were used for the enzymatic reactions.
Two different concentrations of (R)-2-chloromandelonitrile were studied in parallel batches. The reaction was started by adding 250 μl of substrate solution and was carried out in culture tubes in the shaking cabinet at 30° C. and 130 rpm. To monitor the conversion rate, in each case 200 μl were withdrawn and admixed with 200 μl of 1N HCl. After centrifugation (5 min, 13 000 rpm) and dilution, the conversion rates were determined by HPLC. • a. 50 mg of (R)-2-chloromandelonitrile, dissolved in 250 μl of DMSO ([S]=60 mM, 10 g/l, cosolvent: 5% DMSO)

[4] = tested on: Rhodococcus erythropolis NCIMB 11540 cells; assay: Enzymatic hydrolysis at different temperatures, Experiment 6.2; type: cell-based; conditions: after 2 h, 10 g/l, 3% DMSO
Procedure: In Experiment 6.2, the temperature was increased to 50° C.
The biocatalyst was produced according to Example 4, Experiment 4.3 (OD546 44). In each case 4.85 ml of the cell suspension (resting cells, OD546 44) were used for the enzymatic reactions. Reactions of 50 mg of (R)-2-chloromandelonitrile (>99%) ([S]=60 mM, 10 g/l), dissolved in 150 μl DMSO (3%) were carried out at 3 different temperatures (30° C., 40° C., 50° C.) in culture tubes at 150 rpm (parallel batches).
as §1

[5] = tested on: Rhodococcus erythropolis NCIMB 11540 cells; assay: Enzymatic hydrolysis using different cosolvents, Experiment 5.2; type: cell-based; conditions: 10 g/l, 30° C.
Procedure: Here, the solvents DMSO, EtOH and ^iPrOH were again used at a fraction of 5%; the substrate concentration was 10 g/l of (R)-2-chloromandelonitrile. The reaction was carried out on a 5 ml scale.
Production of the biocatalyst Example 4, Experiment 4.2 (OD546 8.4). In each case 4.75 ml of the cell suspension (resting cells, OD546 52) were used for the enzymatic reactions. Reactions of (R)-2-chloromandelonitrile (>99%) dissolved in DMSO, EtOH and i-PrOH were carried out in culture tubes at 150 rpm and 30° C. (parallel batches).
as §1, with “conversion,” for “reaction,”, “determined. • a. 50 mg of (R)-2-chloromandelonitrile, dissolved in 250 μl of DMSO ([S]=60 mM, 10 g/l, cosolvent: 5% DMSO)” for “determined.”

[6] = tested on: Rhodococcus erythropolis NCIMB 11540 cells; assay: Enzymatic hydrolysis using resting cells and lyophilized cells (Example 3); type: cell-based; conditions: approximately 20 mM substrate, 30° C.
Procedure: The biocatalyst was produced in a similar manner to Example 1, Variant I, 2 culture flasks. After 20 hours (OD546=3.5 and 1.8), cells were centrifuged off from 4 times 10 ml aliquots of fermentation broth and washed once with K/Na—PO4 buffer (pH 6.5, 50 mM). Two of the cell samples were lyophilized before activity determination, and the other two were used as resting cells.
The cells were resuspended in 1.8 ml K/Na—PO4 buffer (pH 6.5, 50 mM) (lyophilized cells were shaken for 1 h for rehydration). The reaction was started by adding 200 μl of a 200 mM substrate solution in DMSO (substrate concentration approximately 20 mM) and carried out at 30° C. and 130 rpm in the shaking cabinet. After 30 min, 60 min and 17 h, 200 μl were withdrawn and admixed with 200 μl of 1N HCl. After centrifugation (5 min, 13 000 rpm) and dilution, the conversion rates were determined by means of HPLC. Only the substrate and the two products were taken into consideration in this. The substrate used was (R)-2-chloromandelonitrile (ee>99%). The results are shown in Tab. 3.

[7] = molecular target: T1, Rhodococcus erythropolis NCIMB 11540 nitrile hydratase (Rhodococcus erythropolis, UniProt P13448+P13449); assay: Nitrile hydratase activity determination of crude lysates with methacrylonitrile; type: biochemical; conditions: 40 mM methacrylonitrile in PBS, 28° C.
T1 construct: made in house; host or cells: E. coli B BL21 (plasmid pMS470Nhase7.3 or pMSNhasetactac7.3), crude lysate
T1 sequence (P13448 1-207): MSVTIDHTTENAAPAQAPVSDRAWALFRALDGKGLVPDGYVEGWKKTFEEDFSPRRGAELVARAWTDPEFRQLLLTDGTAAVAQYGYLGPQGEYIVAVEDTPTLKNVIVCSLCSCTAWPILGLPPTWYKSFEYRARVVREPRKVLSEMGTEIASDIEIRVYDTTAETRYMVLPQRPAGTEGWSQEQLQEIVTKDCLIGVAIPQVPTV
T1 sequence (P13449 1-212): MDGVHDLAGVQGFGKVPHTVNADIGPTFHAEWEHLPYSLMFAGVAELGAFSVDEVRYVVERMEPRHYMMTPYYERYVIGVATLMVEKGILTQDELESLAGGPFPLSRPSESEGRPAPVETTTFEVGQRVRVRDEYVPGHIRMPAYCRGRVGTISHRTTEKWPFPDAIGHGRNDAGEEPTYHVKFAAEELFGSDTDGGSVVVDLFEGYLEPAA
Procedure: The E. coli B BL21 cells transformed by pMS470Nhase7.3 (or pMSNhasetactac7.3) were isolated on LB-ampicillin plates and an ONC of 100 ml of LB-ampicillin medium was inoculated with an individual colony. On the next morning a main culture consisting of 250 ml of LB-ampicillin medium was inoculated in a 1000 ml chicane flask to an OD600 of 0.01 to 0.03 (Beckmann Photometer). The growth temperature was controlled at 25° C., since at higher temperatures insoluble inclusion bodies are formed exclusively. After the induction density was reached (OD600=1 Beckmann Photometer), the cultures were induced by adding IPTG to give a concentration of 0.1 mM. In addition, the media were supplemented with 0.1 mM ammonium iron(III) citrate. After reaching an OD600>4, the cultures were harvested (centrifugation at approximately 3000-g for 15 min) and washed once with approximately 100 ml of PBS buffer. […]
Activity determination: crude lysates were diluted 1:10 with PBS buffer immediately before activity determination. […] After centrifugation (16 000·g, 10 minutes), the samples were analyzed spectrophotometrically at 224 nm (Perkin Elmer UV/VIS Spectrometer Lambda Bio). […]

[8] = lyophilized cells (19 mg/ml), 30 min
[9] = lyophilized cells (19 mg/ml), 60 min
[10] = lyophilized cells (19 mg/ml), 17 h
[11] = resting cells, 30 min, culture 1 (OD546 3.5)

For `N#C[C@H](O)c1ccccc1Cl` [(R)-2-chloromandelonitrile], which hydroxy acid formed ([1]; T=30° C.) is on record?
The hydroxy acid formed was 42%.

What about the hydroxy acid formed ([1]; T=35° C.) of the same compound?
Its hydroxy acid formed is 65%.

And the hydroxy acid formed ([1]; T=40° C.)?
Its hydroxy acid formed is 86%.

And the hydroxy acid formed ([2]; 10 g/l (60 mM))?
Its hydroxy acid formed is 80%.

What about the hydroxy acid formed ([2]; 15 g/l (90 mM)) of the same compound?
Its hydroxy acid formed is “approximately 60%”.

And the hydroxy acid formed ([3]; after 2 h, 10 g/l (60 mM))?
The hydroxy acid formed was “approximately 40%”.

And the hydroxy acid formed ([3]; after 18 h, 20 g/l (120 mM))?
Its hydroxy acid formed is 36%.

What about the hydroxy acid formed ([3]; after 43 h, 20 g/l (120 mM)) of the same compound?
Its hydroxy acid formed is 41%.

What about the hydroxy acid formed ([4]; T=30° C.) of the same compound?
The hydroxy acid formed was 42%.

What about the hydroxy acid formed ([4]; T=40° C.) of the same compound?
The hydroxy acid formed was 80%.

What about the hydroxy acid formed ([4]; T=50° C.) of the same compound?
Its hydroxy acid formed is 92%.

What about the hydroxy acid formed ([5]; after 2 h, cosolvent 5% DMSO) of the same compound?
Its hydroxy acid formed is “approximately 40%”.

And the hydroxy acid formed ([5]; after 3 h, cosolvent 5% EtOH)?
Its hydroxy acid formed is 35%.

What about the hydroxy acid formed ([5]; after 3 h, cosolvent 5% i-PrOH) of the same compound?
Its hydroxy acid formed is 8%.

And the “hydrolysis to form the hydroxy acid complete” value ([5]; after 19 h, cosolvent 5% EtOH)?
The value was 94%.

And the hydroxy acid formed ([5]; after 44 h, cosolvent 5% i-PrOH)?
Its hydroxy acid formed is 64%.

What about the “Conversion rate CH (cyanohydrin)” value [6, 8] of the same compound?
The value was 40%.

And the “Conversion rate HA (hydroxyamide)” value [6, 8]?
Its value is under 1%.

And the “Conversion rate CH (cyanohydrin)” value [6, 9]?
Its value is 41%.

What about the “Conversion rate HA (hydroxyamide)” value [6, 9] of the same compound?
Its value is 0%.

And the “Conversion rate CH (cyanohydrin)” value [6, 10]?
The value was 43%.

What about the “Conversion rate HA (hydroxyamide)” value [6, 10] of the same compound?
The value was under 1%.

What about the “Conversion rate CH (cyanohydrin)” value [6, 11] of the same compound?
Its value is 100%.

What about the “Conversion rate HA (hydroxyamide)” value [6, 11] of the same compound?
Its value is 2%.

And the “Conversion rate HA (hydroxyamide)” value ([6]; resting cells, 60 min, culture 1 (OD546 3.5))?
The value was 4%.

What about the “Conversion rate HA (hydroxyamide)” value ([6]; resting cells, 17 h, culture 1 (OD546 3.5)) of the same compound?
Its value is 42%.

With `C=C(C)C#N` [methacrylonitrile] as the compound, how does the “typical activity of crude lysates” value ([7]; pMS470Nhase7.3 lysate) read?
Its value is 100-250 U/ml.

What about the “typical activity of crude lysates” value ([7]; pMSNhasetactac7.3 lysate) of the same compound?
Its value is 350-500 U/ml.
